In article PMC6009892, “A novel series of pyrazole-platinum(II) complexes as potential anti-cancer agents that induce cell cycle arrest and apoptosis in breast cancer cells” (Journal of Enzyme Inhibition and Medicinal Chemistry, 2018):
Like-named read-outs stand apart in the source and are kept apart here.

How the values were obtained:
Format in all cases: cell-based, human
[1] = system: MCF-7 breast cancer cells; assay: DNA fragmentation TUNEL assay, MCF-7; details: MCF-7, 20 μM, 24 h; control 4.0%
Experimental: DNA fragmentation associated with apoptosis was examined by the terminal deoxynucleotidyltransferase (TdT)- mediated dUTP nick end labeling (TUNEL) method using a commercial assay kit (APO-Direct Kit; BD Pharmingen, San Diego, CA). After treatment, the cells were fixed with 1% paraformaldehyde in PBS (4°C, 30 min), washed in PBS, and permeabilised with ice-cold 70% ethanol. The APO-Direct Kit TUNEL assay was performed as described by the manufacturer. Briefly, the fixed cells were washed twice using the kit wash buffer, and after centrifugation the supernatant was discarded. The DNA labeling solution (containing TdT enzyme and FITC-dUTP) was added to the cell pellet, and the re-suspended mixture was incubated for 1 h at 37°C with occasional shaking. At the end of incubation time, rinse buffer was added, and after centrifugation the supernatant was discarded. We repeated the cell rinsing with rinse buffer, and then suspended the cell pellet in PI/RNase staining buffer. Cells were incubated at room temperature for 30 min and immediately analysed in a BD FACSCanto II flow cytometer. In total, 10,000 events were collected per test sample. The results were analysed with FACSDiva software (both from BD Biosciences Systems, San Jose, CA). The percentage of cells with distinctive apoptotic DNA strand breaks and distinguished by green fluorescent emission was calculated.

[2] = system: caspase-9 in MDA-MB-231 breast cancer cells; assay: FLICA caspase-9 activity, flow cytometry, MDA-MB-231; details: MDA-MB-231, 20 μM, 24 h
Experimental: (§1) Caspase-9 activity was measured using the FLICA Caspase 9 Assay Kit (ImmunoChemistry Technologies, Bloomington, MN, USA), according to the manufacturer’s instructions. Briefly, cultured MCF-7 and MDA-MB-231 breast cancer cells (1 × 10^6) were washed with cold PBS twice and re-suspended in buffer. We added 5 µl of diluted FLICA reagent and 2 µl of Hoechst 33342 to 93 µl of cell suspension and mixed by pipetting. The cells were incubated for 60 min at 37°C. After incubation, the cells were washed twice in 400 µl of apoptosis wash buffer and centrifuged at 300 × g. After the last wash, we re-suspended cells in 100 µl of apoptosis wash buffer supplemented with 10 µg/ml PI. Analysis was performed using the BD FACSCanto II flow cytometer, and the results were analysed with FACSDiva software (both from BD Biosciences Systems, San Jose, CA).

[3] = system: caspase-8 in MDA-MB-231 breast cancer cells; assay: FLICA caspase-8 activity, flow cytometry, MDA-MB-231; details: MDA-MB-231, 20 μM, 24 h
Experimental: as §1, with “Caspase-8 activity was” for “Caspase-9 activity was”, “FLICA Caspase 8 Assay Kit” for “FLICA Caspase 9 Assay Kit”, “we re-suspended the cells in” for “we re-suspended cells in”

[4] = system: MDA-MB-231 breast cancer cells; assay: MTT cell viability assay, MDA-MB-231
Experimental: (§2) MCF-7, MDA-MB-231 (both human breast cancer cell lines), and fibroblast cells were obtained from American Type Culture Collection (ATCC, Manassas, VA, USA). DMEM and FBS used in a cell culture were from Gibco (USA). Glutamine, penicillin, and streptomycin were obtained from Quality Biologicals Inc. (USA). DMEM media was blended with 50 units/ml of penicillin, 50 μg/ml of streptomycin, 10% of FBS. All cell lines were cultured in 5% CO2 and fully humidified at 37 °C. Cells were cultured in Costar flasks and sub-confluent cells were detached with 0.05% trypsin and 0.02% ethylenediaminetetraacetic acid in calcium-free phosphate-buffered saline (PBS), counted in hemocytometers, and plated at 5 × 10^5 cells/well of six-well plates (Thermo Scientific, New York, NY, USA) in 2 ml of growth medium (DMEM without phenol red with 10% CPSR1). Cells reached about 80% of confluency at day 2, and in most cases such cells were used for the assays.
(§3) The viability of cultured cells was decided through assaying the reduction of MTT to formazan. In brief, MCF-7, MDA-MB-231, and fibroblast cells line were seeded at an initial density of 1 × 10^5 cells per well. Then, the cells were incubated at 37 °C for 24 h. Subsequently, cultured cells were treated with a medium containing concentrations (5, 10, 20, 30, 40, and 50 μM) of PtPz1–PtPz6 for 24 h and 48 h. After the incubation period, MTT was added into all wells in the final concentration of 0.5 mg/ml. After that, the cells were incubated at 37 °C for 4 h. Then, by removing the medium, 200 μl of DMSO was added to all wells. As a result, insoluble formazan was dissolved in DMSO (0.5%). At 570 nm (630 nm as a reference), the absorbance was measured in an Evolution 201 reader (Thermo Scientific, Waltham, MA).

[5] = system: caspase-3 in MDA-MB-231 breast cancer cells; assay: FLICA caspase-3 activity, flow cytometry, MDA-MB-231; details: MDA-MB-231, 20 μM, 24 h
Experimental: as §1, with “Caspase-3 activity was” for “Caspase-9 activity was”, “FLICA Caspase 3 Assay Kit” for “FLICA Caspase 9 Assay Kit”, “Briefly, cultured MDA-MB-231 breast” for “Briefly, cultured MCF-7 and MDA-MB-231 breast”, “we re-suspended the cells in” for “we re-suspended cells in”

fibroblast cells = assay: MTT cell viability assay, fibroblasts
Experimental: as §2, §3

[6] = system: caspase-8 in MCF-7 breast cancer cells; assay: FLICA caspase-8 activity, flow cytometry, MCF-7; details: MCF-7, 20 μM, 24 h
Experimental: as §1, with “Caspase-8 activity was” for “Caspase-9 activity was”, “FLICA Caspase 8 Assay Kit” for “FLICA Caspase 9 Assay Kit”, “we re-suspended the cells in” for “we re-suspended cells in”

[7] = MDA-MB-231, 24 h incubation, 5-50 μM, read-out: IC50 (cell viability, MTT)
[8] = MDA-MB-231, 48 h incubation, 5-50 μM, read-out: IC50 (cell viability, MTT)
[9] = 24 h incubation, 5-50 μM, read-out: IC50 (cell viability, MTT)
[10] = 48 h incubation, 5-50 μM, read-out: IC50 (cell viability, MTT)

IC50 [4, 7] | IC50 [4, 8] | Compound | percent of TUNEL positive cells [1] | percent of cells with active caspase-9 [2] | percent of cells with active caspase-8 [3] | percent of cells with active caspase-3 [5] | IC50 (fibroblast cells; [9]) | IC50 (fibroblast cells; [10]) | percent of cells with active caspase-8 [6] | increase in caspase-8 activity compared with the control [3] | increase in caspase-3 activity compared with untreated cells [5] | increase in caspase-8 activity compared with the control [6] | IC50 ([4]; read-out: IC50 (additional test for cisplatin), MDA-MB-231, 24 h, additional test in concentrations allowing to determine IC50) | IC50 ([4]; read-out: IC50 (additional test for cisplatin), MDA-MB-231, 48 h, additional test in concentrations allowing to determine IC50) | IC50 (fibroblast cells; read-out: IC50 (additional test for cisplatin), 24 h, additional test in concentrations allowing to determine IC50) | IC50 (fibroblast cells; read-out: IC50 (additional test for cisplatin), 48 h, additional test in concentrations allowing to determine IC50)
29 ± 1 µM | 19 ± 2 µM | Cc1ccn[nH]1.Cc1ccn[nH]1.Cc1ccn[nH]1.Cc1ccn[nH]1.Cl.Cl.Cl.Cl.N=C(N)c1ccc(N=N[N]([Pt])c2ccc(C(=N)N)cc2)cc1.N=C(N)c1ccc(N=N[N]([Pt])c2ccc(C(=N)N)cc2)cc1.O.O [PtPz5, [Pt2(5-methylpyrazole)4(berenil)2]·4HCl·2H2O] | 32.1% | 38.6% | 37.9% | 21.0% | 35 ± 1 µM | 31 ± 2 µM | 46.1% |  |  |  |  |  |  | 
20 ± 2 µM | 16 ± 1 µM | Cc1c[nH][n+]([Pt-2]2([n+]3[nH]cc(C)c3C)[N](c3ccc(C(=N)N)cc3)N=[N+](c3ccc(C(=N)N)cc3)[Pt-2]([n+]3[nH]cc(C)c3C)([n+]3[nH]cc(C)c3C)[N](c3ccc(C(=N)N)cc3)N=[N+]2c2ccc(C(=N)N)cc2)c1C.Cl.Cl.Cl.Cl.O.O [PtPz3, [Pt2(3,4-dimethylpyrazole)4(berenil)2]·4HCl·2H2O] | 46.5% | 41.1% | 38.0% | 22.9% | 32 ± 1 µM | 28 ± 1 µM | 48.3% |  |  |  |  |  |  | 
16 ± 1 µM | 10 ± 1 µM | Cc1cc(C)[n+]([Pt-2]2([n+]3c(C)cc(C)n3CO)[N](c3ccc(C(=N)N)cc3)N=[N+](c3ccc(C(=N)N)cc3)[Pt-2]([n+]3c(C)cc(C)n3CO)([n+]3c(C)cc(C)n3CO)[N](c3ccc(C(=N)N)cc3)N=[N+]2c2ccc(C(=N)N)cc2)n1CO.Cl.Cl.Cl.Cl.O.O [PtPz1, [Pt2(N-hydroxymethyl-3,5-dimethylpyrazole)4(berenil)2]·4HCl·2H2O] | 55.7% | 47.9% | 48.9% | 30.6% | 24 ± 3 µM | 19 ± 2 µM | 56.2% | about 10 fold | nine-fold increase | ~12 fold |  |  |  | 
> 50 µM | 39 ± 2 µM | CCn1ccc[n+]1[Pt-2]1([n+]2cccn2CC)[N](c2ccc(C(=N)N)cc2)N=[N+](c2ccc(C(=N)N)cc2)[Pt-2]([n+]2cccn2CC)([n+]2cccn2CC)[N](c2ccc(C(=N)N)cc2)N=[N+]1c1ccc(C(=N)N)cc1.Cl.Cl.Cl.Cl.O.O [PtPz6, [Pt2(N-ethylpyrazole)4(berenil)2]·4HCl·2H2O] | 14.2% | 24.6% | 21.1% | 11.0% | > 50 µM | > 50 µM | 21.0% |  |  |  |  |  |  | 
17 ± 2 µM | 11 ± 1 µM | Cc1cc(C)[n+]([Pt-2]2([n+]3[nH]c(C)cc3C)[N](c3ccc(C(=N)N)cc3)N=[N+](c3ccc(C(=N)N)cc3)[Pt-2]([n+]3[nH]c(C)cc3C)([n+]3[nH]c(C)cc3C)[N](c3ccc(C(=N)N)cc3)N=[N+]2c2ccc(C(=N)N)cc2)[nH]1.Cl.Cl.Cl.Cl.O.O [PtPz2, [Pt2(3,5-dimethylpyrazole)4(berenil)2]·4HCl·2H2O] | 47.5% | 46.5% | 45.8% | 28.9% | 27 ± 2 µM | 24 ± 2 µM | 56.2% | about 10 fold | nine-fold increase | ~12 fold |  |  |  | 

Compound | IC50 [4, 7] | IC50 [4, 8] | percent of TUNEL positive cells [1] | percent of cells with active caspase-9 [2] | percent of cells with active caspase-8 [3] | percent of cells with active caspase-3 [5] | IC50 (fibroblast cells; [9]) | IC50 (fibroblast cells; [10]) | percent of cells with active caspase-8 [6] | increase in caspase-8 activity compared with the control [3] | increase in caspase-3 activity compared with untreated cells [5] | increase in caspase-8 activity compared with the control [6] | IC50 ([4]; read-out: IC50 (additional test for cisplatin), MDA-MB-231, 24 h, additional test in concentrations allowing to determine IC50) | IC50 ([4]; read-out: IC50 (additional test for cisplatin), MDA-MB-231, 48 h, additional test in concentrations allowing to determine IC50) | IC50 (fibroblast cells; read-out: IC50 (additional test for cisplatin), 24 h, additional test in concentrations allowing to determine IC50) | IC50 (fibroblast cells; read-out: IC50 (additional test for cisplatin), 48 h, additional test in concentrations allowing to determine IC50)
N.N.[Cl][Pt][Cl] [cisplatin, reference compound] | > 50 µM | > 50 µM | 10.9% | 7.3% | 9.7% | 6.4% |  | > 50 µM | 7.1% |  |  |  | 82 ± 2 µM | 72 ± 1 µM | > 100 µM | > 100 µM
